From ChEMBL document CHEMBL6134895, “Strategic Design and Optimization of Umifenovir Analogues: Balancing Antiviral Efficacy and hERG Toxicity against SARS-CoV-2” (J Med Chem, 2025)

Test system: SARS-CoV-2
Assay: Antiviral activity against SARS CoV-2 assessed as inhibition of viral entry into HEK293T-hACE2 cells pretreated compound with HIV-1-based SARS CoV-2 pseudovirus harboring reporter NanoLuc luciferase gene for 1 hr followed by exposure to HEK293T-hACE2 cells measured after 48 hrs by Nano-Glo luciferase assay
Assay type: functional, organism-based
Details: Severe acute respiratory syndrome coronavirus 2

In order of falling IC50:
1. CCOC(=O)c1c(CSc2ccccc2)n(C)c2cc(Br)c(O)c(CN(C)C)c12  2.3 µM
2. Cc1ccc(Cn2c(CSc3c(C)cc(C)cc3C)c(C(=O)N3CCC(N4CCOCC4)CC3)c3cc(O)c(Br)cc32)cc1  0.28 µM
3. Cc1ccc(Cn2c(CSc3c(C)cc(C)cc3C)c(C(=O)NC3CCN(C(C)C)CC3)c3cc(O)c(Br)cc32)cc1  0.17 µM
